Data as given in ChEMBL document CHEMBL5331078, “1-Benzyloxy-5-phenyltetrazole derivatives highly active against androgen receptor-dependent prostate cancer cells” (Eur J Med Chem, 2023).
Active and inactive are the calls of the source. The rule behind the calls is not given here.

Columns and labels:
CWR22R [1] = test: Downregulation of MYB gene expression in human 22Rv1 cells at 1 uM measured after 24 to 36 hrs by RNA sequencing analysis; assay type: functional, cell-based; conditions: time 24-36 hrs
CWR22R [2] = test: Downregulation of CDC7 gene expression in human 22Rv1 cells at 1 uM measured after 24 to 36 hrs by RNA sequencing analysis; assay type: functional, cell-based; conditions: time 24-36 hrs
CWR22R [3] = test: Downregulation of MYC gene expression in human 22Rv1 cells at 1 uM measured after 24 to 36 hrs by RNA sequencing analysis; assay type: functional, cell-based; conditions: time 24-36 hrs
CWR22R [4] = test: Downregulation of BRCA2 gene expression in human 22Rv1 cells at 1 uM measured after 24 to 36 hrs by RNA sequencing analysis; assay type: functional, cell-based; conditions: time 24-36 hrs
[5] = Half life in rat at 5 mg/kg, iv measured upto 24 hrs by LC-MS/MS analysis; assay type: ADME, organism-based; conditions: in vivo
CWR22R [6] = test: Downregulation of POLE2 gene expression in human 22Rv1 cells at 1 uM measured after 24 to 36 hrs by RNA sequencing analysis; assay type: functional, cell-based; conditions: time 24-36 hrs
[7] = AUC (0 to t) in rat at 5 mg/kg, iv measured upto 24 hrs by LC-MS/MS analysis; assay type: ADME, organism-based; parameters: dose 5 mg/kg, time < 24 hrs, route iv; conditions: in vivo
[8] = Metabolic stability in mouse liver microsomes assessed as intrinsic clearance incubated for 60 mins in presence of NADPH-regenerating system; assay type: ADME, Microsome; conditions: liver microsomes, read-out: CLH
CWR22R [9] = test: Downregulation of E2F gene expression in human 22Rv1 cells at 1 uM measured after 24 to 36 hrs by RNA sequencing analysis; assay type: functional, cell-based; conditions: time 24-36 hrs
[10] = Partition coefficient, logD of the compound at pH 7.4 by HPLC analysis; assay type: physicochemical; conditions: octanol/water
CWR22R [11] = test: Downregulation of CHEK1 gene expression in human 22Rv1 cells at 1 uM measured after 24 to 36 hrs by RNA sequencing analysis; assay type: functional, cell-based; conditions: time 24-36 hrs
CWR22R [12] = test: Downregulation of androgen receptor in human 22Rv1 cells measured for 24 to 36 hrs by Western blot analysis; assay type: functional, cell-based; conditions: dose 0.5-10 µM, time 24-36 hrs
[13] = Toxicity in NOD-SCID mouse assessed as effect on body weight loss at 10 mg/kg/day, ip measured upto 20 days; assay type: organism-based; conditions: in vivo, 480 h, time < 20 day
CWR22R [14] = test: Downregulation of Androgen receptor level in human 22Rv1 cells at 0.5 to 10 uM measured after 36 hrs by Western blot analysis; assay type: functional, cell-based; conditions: dose 0.5-10 µM
CWR22R [15] = test: Downregulation of PCNA gene expression in human 22Rv1 cells at 1 uM measured after 24 to 36 hrs by RNA sequencing analysis; assay type: functional, cell-based; conditions: time 24-36 hrs
CWR22R [16] = test: Downregulation of CDK2 gene expression in human 22Rv1 cells at 1 uM measured after 24 to 36 hrs by RNA sequencing analysis; assay type: functional, cell-based; conditions: time 24-36 hrs
[17] = Kinetic solubility of the compound in phosphate buffer at pH 6.5 after 30 mins by nephelometry; assay type: physicochemical; conditions: read-out: Kinetic_solubility
CWR22R [18] = test: Downregulation of DNMT1 gene expression in human 22Rv1 cells at 1 uM measured after 24 to 36 hrs by RNA sequencing analysis; assay type: functional, cell-based; conditions: time 24-36 hrs
[19] = Volume of distribution at steady state in rat at 5 mg/kg, iv measured upto 24 hrs by LC-MS/MS analysis; assay type: ADME, organism-based; conditions: in vivo, read-out: Vdss
CWR22R [20] = test: Downregulation of MCM10 gene expression in human 22Rv1 cells at 1 uM measured after 24 to 36 hrs by RNA sequencing analysis; assay type: functional, cell-based; conditions: time 24-36 hrs
[21] = AUC (0 to infinity) in rat at 5 mg/kg, iv measured upto 24 hrs by LC-MS/MS analysis; assay type: ADME, organism-based; parameters: time < 24 hrs, dose 5 mg/kg, route iv; conditions: in vivo
CWR22R [22] = test: Downregulation of RAD51D gene expression in human 22Rv1 cells at 1 uM measured after 24 to 36 hrs by RNA sequencing analysis; assay type: functional, cell-based; conditions: time 24-36 hrs
CWR22R [23] = test: Downregulation of RRM2 gene expression in human 22Rv1 cells at 1 uM measured after 24 to 36 hrs by RNA sequencing analysis; assay type: functional, cell-based; conditions: time 24-36 hrs
[24] = Kinetic solubility of the compound in 0.01 M HCl at pH 2 after 30 mins by nephelometry; assay type: physicochemical; conditions: read-out: Kinetic_solubility
CWR22R [25] = test: Downregulation of AR-v7 level in human 22Rv1 cells at 0.5 to 10 uM by Western blot analysis; assay type: functional, cell-based; conditions: dose 0.5-10 µM, time 24-36 hrs, TDE = time-dependent effect
CWR22R [26] = test: Downregulation of FEN1 gene expression in human 22Rv1 cells at 1 uM measured after 24 to 36 hrs by RNA sequencing analysis; assay type: functional, cell-based; conditions: time 24-36 hrs
CWR22R [27] = test: Downregulation of BRCA1 gene expression in human 22Rv1 cells at 1 uM measured after 24 to 36 hrs by RNA sequencing analysis; assay type: functional, cell-based; conditions: time 24-36 hrs
[28] = MRT (0 to infinity) in rat at 5 mg/kg, iv measured upto 24 hrs by LC-MS/MS analysis; assay type: ADME, organism-based; conditions: in vivo
CWR22R [29] = test: Downregulation of GREB1L gene expression in human 22Rv1 cells at 1 uM measured after 24 to 36 hrs by RNA sequencing analysis; assay type: functional, cell-based; conditions: time 24-36 hrs
[30] = Clearance in rat at 5 mg/kg, iv measured upto 24 hrs by LC-MS/MS analysis; assay type: ADME, organism-based; conditions: in vivo
CWR22R [31] = test: Downregulation of MTBP gene expression in human 22Rv1 cells at 1 uM measured after 24 to 36 hrs by RNA sequencing analysis; assay type: functional, cell-based; conditions: time 24-36 hrs
CWR22R [32] = test: Downregulation of E2F1 gene expression in human 22Rv1 cells at 1 uM measured after 24 to 36 hrs by RNA sequencing analysis; assay type: functional, cell-based; conditions: time 24-36 hrs
CWR22R [33] = test: Downregulation of CDC25A gene expression in human 22Rv1 cells at 1 uM measured after 24 to 36 hrs by RNA sequencing analysis; assay type: functional, cell-based; conditions: time 24-36 hrs
CWR22R [34] = test: Downregulation of CDC6 gene expression in human 22Rv1 cells at 1 uM measured after 24 to 36 hrs by RNA sequencing analysis; assay type: functional, cell-based; conditions: time 24-36 hrs
CWR22R [35] = test: Antitumor activity against human 22Rv1 cells xenografted in NOD-SCID mouse assessed as inhibition of tumor growth at 10 mg/kg/day, ip measured upto 20 days; assay type: functional, organism-based; conditions: time <= 20.0 day
[36] = C0 in rat at 5 mg/kg, iv measured upto 24 hrs by LC-MS/MS analysis; assay type: ADME, organism-based; conditions: in vivo
[37] = Metabolic stability in mouse liver microsomes assessed as half life incubated for 60 mins in presence of NADPH-regenerating system; assay type: ADME, Microsome; conditions: liver microsomes
Papain = molecular target: T1, Papain (Carica papaya, UniProt P00784); test: Inhibition of papaya papain protease activity assessed as covalent binding mode of action at 10 uM incubated for 30 mins by absorbance based analysis; conditions: 0.5 h
T1 sequence (P00784 whole entry): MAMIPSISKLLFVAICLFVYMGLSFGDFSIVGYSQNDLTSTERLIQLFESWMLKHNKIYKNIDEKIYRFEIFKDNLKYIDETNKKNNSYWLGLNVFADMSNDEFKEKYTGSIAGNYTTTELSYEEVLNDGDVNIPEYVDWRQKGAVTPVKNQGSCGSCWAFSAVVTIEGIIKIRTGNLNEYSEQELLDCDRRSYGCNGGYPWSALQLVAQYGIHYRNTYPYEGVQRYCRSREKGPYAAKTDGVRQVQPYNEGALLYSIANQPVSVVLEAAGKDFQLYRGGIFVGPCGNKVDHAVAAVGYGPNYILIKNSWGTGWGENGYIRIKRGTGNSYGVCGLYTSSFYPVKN

Which results are given for `Clc1ccc(COn2nnnc2-c2ccc(Cl)cc2)cc1`?
Activity (CWR22R [1]): Active; Activity (CWR22R [2]): Active; Activity (CWR22R [3]): Active; Activity (CWR22R [4]): Active; half-life [5]: 55.1 min; Activity (CWR22R [6]): Active; AUC(0-t) at 24 h [7]: 1080 ng·h/mL; microsomal CLint [8]: 21 µL/min/mg; Activity (CWR22R [9]): Active; logD [10]: 4.5; Activity (CWR22R [11]): Active; Activity (CWR22R [12]): Dose-Dependent Effect; Activity [13]: Non-Toxic; Activity (CWR22R [14]): Active; Activity (CWR22R [15]): Active; Activity (CWR22R [16]): Active; solubility kinetic at 0.5 h [17]: < 1.6 µg/mL; Activity (CWR22R [18]): Active; Vd [19]: 1.53 L/kg; Activity (CWR22R [20]): Active; AUC(0-inf) [21]: 1100 ng·h/mL; Activity (CWR22R [22]): Active; Activity (CWR22R [23]): Active; solubility kinetic at 0.5 h [24]: < 1.6 µg/mL; Activity (CWR22R [25]): Tde; Activity (CWR22R [26]): Active; Activity (CWR22R [27]): Active; MRT inf [28]: 20.2 min; Activity (CWR22R [29]): Active; clearance [30]: 75.9 mL/min/kg; Activity (CWR22R [31]): Active; Activity (CWR22R [32]): Active; Activity (CWR22R [33]): Active; Activity (CWR22R [34]): Active; Activity (CWR22R [35]): Active; C0 at 24 h [36]: 5480 ng/mL; half-life [37]: 21 min; inhibition (INH) (Papain): Not Active
